In patent publication US20260250318A1, “COMPOSITIONS AND METHODS FOR CROSSING THE BLOOD BRAIN BARRIER” (VOYAGER THERAPEUTICS, INC., priority 2022, published 2026):

Assays:
Details in all cases: synthetic library passage 3, intravenous, relative to wild-type AAV9
[1] = tested on: brain, spinal cord, and DRG of the NHPs; assay: NGS fold enrichment of synthetic library (passage 3) in NHPs, first cross-species screen; type: in vivo, cynomolgus macaques (Macaca fascicularis)
Summary of the method: (§1)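 Synthetic capsid library (passage 3) was given intravenously […] to NHPs aged 2-4 years and to BALB/c and C57Bl/6 mice (n=3 each, 6-8 weeks). After about 28 days in vivo, tissue RNA was RT-PCR amplified and NGS-sequenced; values are fold enrichment per variant relative to wild-type AAV9.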

[2] = tested on: brain; assay: NGS fold enrichment of synthetic library (passage 3) in BALB/c mice, first cross-species screen; type: in vivo
Summary of the method: as §1

[3] = tested on: brain; assay: NGS fold enrichment of synthetic library (passage 3) in C57Bl/6 mice, first cross-species screen; type: in vivo
Summary of the method: as §1

[4] = RNA from spinal cord of NHPs, NGS
[5] = RNA from brain of BALB/c mice, NGS
[6] = RNA from brain of C57Bl/6 mice, NGS

Sequence	Fold enrichment over AAV9 in the brain of NHPs ([1]; RNA from brain of NHPs, NGS)	Fold enrichment over AAV9 in the spinal cord of NHPs [1, 4]	Fold enrichment over AAV9 in the brain of Mice (BALB/c) [2, 5]	Fold enrichment over AAV9 in the brain of Mice (C57Bl/6) [3, 6]	Fold enrichment over AAV9 in the brain of NHPs ([1]; RNA NGS, brain of NHPs)	Fold enrichment over AAV9 in the spinal cord of NHPs ([1]; RNA NGS, spinal cord of NHPs)	Fold enrichment over AAV9 in the brain of Mice (BALB/c) ([2]; RNA NGS, brain of BALB/c mice)	Fold enrichment over AAV9 in the brain of Mice (C57Bl/6) ([3]; RNA NGS, brain of C57Bl/6 mice)
GNSQVKVSGQNQQT	1.158 fold	4.930 fold	0.728 fold	1.422 fold	–	–	–	–
GSGPSISHGQNQQT	–	–	–	–	1.000 fold	0.000 fold	0.665 fold	0.614 fold
GSSGIPVSHQNQQT	–	–	–	–	1.690 fold	3.384 fold	0.333 fold	0.820 fold
GSGQNQQLKSSAQT	–	–	–	–	1.891 fold	1.197 fold	0.716 fold	0.908 fold
GSGQNQQTHPSPCT	–	–	–	–	1.510 fold	1.003 fold	0.546 fold	1.120 fold
GSSVGSPIGQNQQT	–	–	–	–	1.584 fold	3.574 fold	0.706 fold	1.059 fold
GSGQNQQTRLVDLT	–	–	–	–	2.342 fold	9.348 fold	0.490 fold	1.268 fold
GSGQNQQTLPSLSL	–	–	–	–	1.084 fold	1.758 fold	0.175 fold	0.527 fold
GSGQTVVRIANQQT	–	–	–	–	1.046 fold	4.156 fold	0.390 fold	0.661 fold
GSGQIRESMGNQQT	1.270 fold	1.676 fold	0.523 fold	0.833 fold	–	–	–	–
GALTVMQSGQNQQT	–	–	–	–	2.381 fold	0.430 fold	0.199 fold	0.246 fold
GSGQLVSGLYNQQT	1.325 fold	0.000 fold	0.733 fold	0.842 fold	–	–	–	–
GKSFVPQSGQNQQT	–	–	–	–	1.489 fold	2.502 fold	0.430 fold	1.798 fold
